Legend:
Format in all cases: in vivo
Phaedon cochleariae = Phaedon cochleariae spray test; conditions: after 7 days, larvae on Chinese cabbage leaf discs
Description: Phaedon cochleariae—Spray Test
Solvent: 78.0 parts by weight of acetone • • 1.5 parts by weight of dimethylformamide
Emulsifier: alkylaryl polyglycol ether
To produce a suitable preparation of active compound, 1 part by weight of active compound is dissolved using the stated parts by weight of solvent and made up with water containing an emulsifier concentration of 1000 ppm until the desired concentration is attained. To produce further test concentrations, the preparation is diluted with emulsifier-containing water.
After 7 days, the efficacy in % is determined. 100% means that all the beetle larvae have been killed; 0% means that no beetle larvae have been killed.

Myzus persicae = Myzus persicae spray test (Chinese cabbage leaf discs); conditions: after 6 days
Description: Myzus persicae—Spray Test Solvent: 78 parts by weight of acetone • • 1.5 parts by weight of dimethylformamide Emulsifier: alkylaryl polyglycol ether […] To produce further test concentrations, the preparation is diluted with emulsifier-containing water. Discs of Chinese cabbage leaves (Brassica pekinensis) infested by all stages of the green peach aphid (Myzus persicae) are sprayed with an active compound preparation of the desired concentration.

Lucilia cuprina = Lucilia cuprina test; conditions: 100 ppm, after 2 days, L1 larvae
Description: (§1) Solvent: dimethyl sulphoxide
To produce a suitable preparation of active compound, 10 mg of active compound are mixed with 0.5 ml of dimethyl sulphoxide, and the concentrate is diluted with water to the desired concentration.
About 20 L1 larvae of the Australian sheep blowfly (Lucilia cuprina) are transferred into a test vessel containing minced horsemeat and the active compound preparation of the desired concentration.
After 2 days, the kill in % is determined. 100% means that all the larvae have been killed; 0% means that no larvae have been killed.

Ctenocephalides felis = Ctenocephalides felis oral test; conditions: 100 ppm in citrated cattle blood, after 2 days
Description: Ctenocephalides felis—Oral Test Solvent: dimethyl sulphoxide […] Dilution with citrated cattle blood gives the desired concentration. About 20 unfed adult cat fleas (Ctenocephalides felis) are placed into a chamber which is closed at the top and bottom with gauze. A metal cylinder whose bottom end is closed with parafilm is placed onto the chamber. The cylinder contains the blood/active compound preparation, which can be imbibed by the fleas through the parafilm membrane.

Spodoptera frugiperda = Spodoptera frugiperda spray test (maize leaf discs); conditions: after 7 days, caterpillars on maize leaf discs
Description: Spodoptera frugiperda—Spray Test Solvent: 78.0 parts by weight of acetone • • 1.5 parts by weight of dimethylformamide Emulsifier: alkylaryl polyglycol ether […] To produce further test concentrations, the preparation is diluted with emulsifier-containing water. Leaf discs of maize (Zea mays) are sprayed with an active compound preparation of the desired concentration and, after drying, populated with caterpillars of the armyworm (Spodoptera frugiperda).

Boophilus microplus = Boophilus microplus injection test; conditions: 20 μg/animal, assessed after 7 days
Description: Boophilus microplus—Injection Test
as §1
To produce a suitable preparation of active compound, 10 mg of active compound are mixed with 0.5 ml of solvent and the concentrate is diluted with solvent to the desired concentration.
1 μl of the active compound solution is injected into the abdomen of 5 engorged adult female cattle ticks (Boophilus microplus). The animals are transferred into dishes and kept in a climate-controlled room.
Efficacy is assessed after 7 days by laying of fertile eggs. Eggs which are not visibly fertile are stored in a climate-controlled cabinet until the larvae hatch after about 42 days. An efficacy of 100% means that none of the ticks has laid any fertile eggs; 0% means that all the eggs are fertile.

SMILES | efficacy (Phaedon cochleariae; 500 g/ha) | efficacy (Myzus persicae; 500 g/ha) | efficacy (Spodoptera frugiperda; 500 g/ha) | further results
CCS(=O)(=O)c1ccc(-n2ccc(SC(F)(F)F)c2)nc1-c1nc2cc(C(F)(F)F)ncc2n1C [Example 2] | 100% | 90% | – | efficacy (kill) (Lucilia cuprina): 100%; efficacy (kill) (Ctenocephalides felis): 100%
CCS(=O)(=O)c1ccc(-n2ccc(SC)n2)nc1-c1nc2cc(C(F)(F)F)ncc2n1C [Example 29] | 100% | 90% | – | –
CCS(=O)(=O)c1ccc(-c2sccc2Cl)nc1-c1nc2cc(C(F)(F)F)ncc2n1C [Example 85] | – | – | 100% | –
CCS(=O)(=O)c1ccc(-n2c(SC)nn(C)c2=O)nc1-c1nc2cc(C(F)(F)F)ncc2n1C [Example 58] | 83% | – | – | –
CCS(=O)(=O)c1ccc(-c2cc(Cl)cs2)nc1-c1nc2cc(C(F)(F)F)ncc2n1C [Example 77] | – | – | 100% | –
CCS(=O)(=O)c1ccc(-n2ccc(S(C)(=O)=O)n2)nc1-c1nc2cc(C(F)(F)F)ncc2n1C [Example 35] | 100% | 90% | – | efficacy (kill) (Lucilia cuprina): 100%; efficacy (kill) (Ctenocephalides felis): 100%
CCS(=O)(=O)c1ccc(-n2ccc(COC)n2)nc1-c1nc2cc(C(F)(F)F)ncc2n1C [Example 10] | – | 90% | – | efficacy (kill) (Lucilia cuprina): 100%
CCS(=O)(=O)c1ccc(-n2nnc(C(F)(F)F)n2)nc1-c1nc2cc(C(F)(F)F)ncc2n1C [Example 55] | 100% | 90% | 100% | –
CCS(=O)(=O)c1ccc(-n2cc(Cl)cn2)nc1-c1nc2cc(C(F)(F)F)ncc2n1C [Example 6] | – | – | – | efficacy (Spodoptera frugiperda; 100 g/ha): 100%; efficacy (kill) (Ctenocephalides felis): 95%
CCS(=O)(=O)c1ccc(-n2nnn(CC(F)(F)F)c2=O)nc1-c1nc2cc(C(F)(F)F)ncc2n1C [Example 52] | 100% | 90% | – | –
CCS(=O)(=O)c1ccc(-n2nnn(CC(F)(F)C(F)(F)F)c2=O)nc1-c1nc2cc(C(F)(F)F)ncc2n1C [Example 56] | 100% | 100% | 100% | –
CCS(=O)(=O)c1ccc(-c2cn[nH]c2)nc1-c1nc2cc(C(F)(F)F)ncc2n1C [Example 84] | 83% | – | 100% | –
CCS(=O)(=O)c1ccc(-n2ccn(C)c2=O)nc1-c1nc2cc(C(F)(F)F)ncc2n1C [Example 39] | 100% | – | – | efficacy (Myzus persicae; 20 g/ha): 90%
CCS(=O)(=O)c1ccc(-n2cnc(SC)n2)nc1-c1nc2cc(C(F)(F)F)ncc2n1C [Example 15] | 100% | 90% | 83% | –
CCS(=O)(=O)c1ccc(-c2cc[nH]c2)nc1-c1nc2cc(C(F)(F)F)ncc2n1C [Example 73] | 100% | 90% | – | –
CCS(=O)(=O)c1ccc(-n2ncc(C(F)(F)F)n2)nc1-c1nc2cc(C(F)(F)F)ncc2n1C [Example 30] | 100% | 90% | 100% | efficacy (laying of fertile eggs) (Boophilus microplus): 95%; efficacy (kill) (Lucilia cuprina): 100%
CCS(=O)(=O)c1ccc(-n2ccc(Cl)n2)nc1-c1nc2cc(C(F)(F)F)ncc2n1C [Example 9] | 100% | – | – | efficacy (Spodoptera frugiperda; 100 g/ha): 83%
CCS(=O)(=O)c1ccc(-n2cccn2)nc1-c1nc2cc(C(F)(F)F)ncc2n1C [Example 21] | – | – | – | efficacy (Phaedon cochleariae; 20 g/ha): 83%; efficacy (Spodoptera frugiperda; 100 g/ha): 100%
CCS(=O)(=O)c1ccc(-n2cc(SC)cn2)nc1-c1nc2cc(C(F)(F)F)ncc2n1C [Example 16] | 100% | 100% | 100% | –

SMILES | efficacy (Phaedon cochleariae; 500 g/ha) | efficacy (Myzus persicae; 500 g/ha) | efficacy (Spodoptera frugiperda; 500 g/ha) | further results
CCS(=O)(=O)c1ccc(-n2ccc(C3CC3)n2)nc1-c1nc2cc(C(F)(F)F)ncc2n1C [Example 53] | 100% | 90% | 100% | efficacy (kill) (Lucilia cuprina): 100%; efficacy (kill) (Ctenocephalides felis): 100%
CCS(=O)(=O)c1ccc(-n2cc(CSC)cn2)nc1-c1nc2cc(C(F)(F)F)ncc2n1C [Example 38] | 100% | – | – | –
CCS(=O)(=O)c1ccc(-n2cc(F)cn2)nc1-c1nc2cc(C(F)(F)F)ncc2n1C [Example 28] | – | – | – | efficacy (Phaedon cochleariae; 100 g/ha): 100%; efficacy (Spodoptera frugiperda; 100 g/ha): 100%; efficacy (kill) (Lucilia cuprina): 100%; efficacy (kill) (Ctenocephalides felis): 98%
CCS(=O)(=O)c1ccc(-n2nc(C)[nH]c2=O)nc1-c1nc2cc(C(F)(F)F)ncc2n1C [Example 48] | 83% | – | 100% | –
CCS(=O)(=O)c1ccc(-c2ccccn2)nc1-c1nc2cc(C(F)(F)F)ncc2n1C [Example 71] | 100% | – | 100% | –
CCS(=O)(=O)c1ccc(-n2cc(S(C)(=O)=O)cn2)nc1-c1nc2cc(C(F)(F)F)ncc2n1C [Example 3] | 100% | 90% | – | efficacy (kill) (Lucilia cuprina): 100%; efficacy (kill) (Ctenocephalides felis): 100%
CCS(=O)(=O)c1ccc(-n2ccc(NC(C)=O)n2)nc1-c1nc2cc(C(F)(F)F)ncc2n1C [Example 23] | 100% | 90% | – | efficacy (kill) (Lucilia cuprina): 100%
CCS(=O)(=O)c1ccc(-n2cc(C(=O)NC)cn2)nc1-c1nc2cc(C(F)(F)F)ncc2n1C [Example 4] | 100% | 90% | – | efficacy (kill) (Lucilia cuprina): 100%; efficacy (kill) (Ctenocephalides felis): 100%
CCS(=O)(=O)c1ccc(N2CCSC2=O)nc1-c1nc2cc(C(F)(F)F)ncc2n1C [Example 42] | 100% | 90% | – | –
CCS(=O)(=O)c1ccc(-c2cnn(C)c2)nc1-c1nc2cc(C(F)(F)F)ncc2n1C [Example 83] | 100% | 90% | 100% | –
CCS(=O)(=O)c1ccc(-c2cccnc2)nc1-c1nc2cc(C(F)(F)F)ncc2n1C [Example 72] | – | 90% | – | efficacy (Phaedon cochleariae; 100 g/ha): 83%
CCS(=O)(=O)c1ccc(-n2cnc(C(F)(F)F)c2)nc1-c1nc2cc(C(F)(F)F)ncc2n1C [Example 27] | 100% | – | – | efficacy (kill) (Ctenocephalides felis): 95%
CCS(=O)(=O)c1ccc(-n2nnn(C)c2=O)nc1-c1nc2cc(C(F)(F)F)ncc2n1C [Example 46] | 100% | – | 100% | –
CCS(=O)(=O)c1ccc(N2CCSC2)nc1-c1nc2cc(C(F)(F)F)ncc2n1C [Example 50] | 100% | 100% | – | –
CCS(=O)(=O)c1ccc(-n2ccc(CSC)n2)nc1-c1nc2cc(C(F)(F)F)ncc2n1C [Example 47] | 100% | – | – | –
CCS(=O)(=O)c1ccc(-n2ccc(C(=O)NC)n2)nc1-c1nc2cc(C(F)(F)F)ncc2n1C [Example 12] | – | 90% | – | –
CCS(=O)(=O)c1ccc(-n2ccc(C(F)(F)F)n2)nc1-c1nc2cc(C(F)(F)F)ncc2n1C [Example 25] | 100% | – | 100% | efficacy (laying of fertile eggs) (Boophilus microplus): 80%; efficacy (kill) (Lucilia cuprina): 100%; efficacy (kill) (Ctenocephalides felis): 100%
CCS(=O)(=O)c1ccc(-c2ccn[nH]2)nc1-c1nc2cc(C(F)(F)F)ncc2n1C [Example 75] | 100% | – | 100% | –
CCS(=O)(=O)c1ccc(-n2cc(CS(C)(=O)=O)cn2)nc1-c1nc2cc(C(F)(F)F)ncc2n1C [Example 60] | 100% | – | – | efficacy (kill) (Lucilia cuprina): 95%; efficacy (kill) (Ctenocephalides felis): 100%
